# Reference: ChEMBL document CHEMBL1136420, “Comparison of library screening techniques used in the development of dsDNA ligands” (Bioorg Med Chem Lett, 2003)
# Numbered stars: 1 amine (or outer) side, 2 acyl side, 3 side chain; on linkers, the order of the positions; unused ones are H or OH. Square brackets hold non-standard residues; d marks the D form. Peptide text beside a SMILES is read from it. Ala(2,4-dioxoquinazolin-3-yl) = N[C@@H](Cn1c(=O)[nH]c2ccccc2c1=O)C(=O)O; Ala(uracil-1-yl) = N[C@@H](Cn1ccc(=O)[nH]c1=O)C(=O)O; X2 = Cc1cn(C[C@H](N[*:1])C(=O)[*:2])c(=O)[nH]c1=O; X3 = Nc1ccn(C[C@H](N[*:1])C(=O)[*:2])c(=O)n1; X1 = Nc1ncnc2c1ncn2C[C@H](N[*:1])C(=O)[*:2]; 2Thi = N[C@@H](Cc1cccs1)C(=O)O; Sar = CNCC(=O)O
# Target: Nucleic Acid
# Assay: Dissociation constant using ethidium-bromide displacement test
# Type: nucleic-acid assay
row,Compound,Kd [µM]
1,"CC(=O)N[C@@H](CCCN=C(N)N)C(=O)N[C@@H](Cn1ccc(=O)[nH]c1=O)C(=O)N(C)CC(=O)N[C@@H](Cn1c(=O)[nH]c2ccccc2c1=O)C(=O)N[C@@H](Cn1c(=O)[nH]c2ccccc2c1=O)C(=O)N[C@@H](Cc1cccs1)C(=O)N[C@@H](CCCN=C(N)N)C(N)=O (Ac-R[Ala(uracil-1-yl)][Sar][Ala(2,4-dioxoquinazolin-3-yl)][Ala(2,4-dioxoquinazolin-3-yl)][2Thi]R-NH2)",230
2,"CC(=O)N[C@@H](CCCN=C(N)N)C(=O)N[C@@H](Cn1ccc(=O)[nH]c1=O)C(=O)N(C)CC(=O)N[C@@H](Cn1c(=O)[nH]c2ccccc2c1=O)C(=O)N[C@@H](Cn1c(=O)[nH]c2ccccc2c1=O)C(=O)N[C@@H](Cn1c(=O)[nH]c2ccccc2c1=O)C(=O)N[C@@H](CCCN=C(N)N)C(N)=O (Ac-R[Ala(uracil-1-yl)][Sar][Ala(2,4-dioxoquinazolin-3-yl)][Ala(2,4-dioxoquinazolin-3-yl)][Ala(2,4-dioxoquinazolin-3-yl)]R-NH2)",91
3,"CC(=O)N[C@@H](CCCN=C(N)N)C(=O)N[C@@H](Cn1ccc(=O)[nH]c1=O)C(=O)N(C)CC(=O)N[C@@H](Cn1c(=O)[nH]c2ccccc2c1=O)C(=O)N[C@@H](Cn1c(=O)[nH]c2ccccc2c1=O)C(=O)N[C@@H](Cn1ccc(=O)[nH]c1=O)C(=O)N[C@@H](CCCN=C(N)N)C(N)=O (Ac-R[Ala(uracil-1-yl)][Sar][Ala(2,4-dioxoquinazolin-3-yl)][Ala(2,4-dioxoquinazolin-3-yl)][Ala(uracil-1-yl)]R-NH2)",610
4,"CC(=O)N[C@@H](CCCN=C(N)N)C(=O)N[C@@H](Cn1ccc(=O)[nH]c1=O)C(=O)N(C)CC(=O)N[C@@H](Cn1c(=O)[nH]c2ccccc2c1=O)C(=O)N[C@@H](Cn1c(=O)[nH]c2ccccc2c1=O)C(=O)N[C@@H](Cn1ccc(N)nc1=O)C(=O)N[C@@H](CCCN=C(N)N)C(N)=O (Ac-R[Ala(uracil-1-yl)][Sar][Ala(2,4-dioxoquinazolin-3-yl)][Ala(2,4-dioxoquinazolin-3-yl)][X3]R-NH2)",630

# Continued, values first:
row,Kd [µM],Compound
1,390,"CC(=O)N[C@@H](CCCN=C(N)N)C(=O)N[C@@H](Cn1ccc(=O)[nH]c1=O)C(=O)N(C)CC(=O)N[C@@H](Cn1c(=O)[nH]c2ccccc2c1=O)C(=O)N[C@@H](Cn1c(=O)[nH]c2ccccc2c1=O)C(=O)N[C@@H](Cn1cnc2c(N)ncnc21)C(=O)N[C@@H](CCCN=C(N)N)C(N)=O (Ac-R[Ala(uracil-1-yl)][Sar][Ala(2,4-dioxoquinazolin-3-yl)][Ala(2,4-dioxoquinazolin-3-yl)][X1]R-NH2)"
2,490,"CC(=O)N[C@@H](CCCN=C(N)N)C(=O)N[C@@H](Cn1ccc(=O)[nH]c1=O)C(=O)N(C)CC(=O)N[C@@H](Cn1c(=O)[nH]c2ccccc2c1=O)C(=O)N[C@@H](Cn1c(=O)[nH]c2ccccc2c1=O)C(=O)N[C@@H](Cn1cc(C)c(=O)[nH]c1=O)C(=O)N[C@@H](CCCN=C(N)N)C(N)=O (Ac-R[Ala(uracil-1-yl)][Sar][Ala(2,4-dioxoquinazolin-3-yl)][Ala(2,4-dioxoquinazolin-3-yl)][X2]R-NH2)"
3,220,"CC(=O)N[C@@H](CCCN=C(N)N)C(=O)N[C@@H](Cn1ccc(=O)[nH]c1=O)C(=O)N(C)CC(=O)N[C@@H](Cn1cc(C)c(=O)[nH]c1=O)C(=O)N[C@@H](Cn1c(=O)[nH]c2ccccc2c1=O)C(=O)N[C@@H](Cn1cnc2c(N)ncnc21)C(=O)N[C@@H](CCCN=C(N)N)C(N)=O (Ac-R[Ala(uracil-1-yl)][Sar][X2][Ala(2,4-dioxoquinazolin-3-yl)][X1]R-NH2)"
